Assay results reported in patent publication US10851073B2, “Protein tyrosine phosphatase inhibitors and methods of use thereof” (Calico Life Sciences LLC, priority 2019, dated 2020).
pEC50, pIC50: −log10 of the molar value. Read-outs that look alike come from different tables or passages of the source.

How the values were obtained:
[1] = system: IFNγ-induced STAT1 phosphorylation in CD14+ monocytes; assay: Human whole blood pSTAT1 proximal pharmacodynamic (PD) assay; assay type: cell-based; conditions: Monocyte, 3 hours compound, IFNγ 20 minutes
Method: Example 230: Human Whole Blood pSTAT1 Proximal Pharmacodynamic (PD) Assay Human blood samples were acquired through internal AbbVie Inc's blood donation program in accordance with AbbVie's Occupational Safety and Health Administration protocols. Blood was collected by venipuncture into sodium heparin coated vacutainer tubes and kept at room temperature for no longer than 1 hour prior to the experiment initiation. Human blood samples (90 μL) were added to the individual wells of 96-well plates containing 10 μL of 10× working stock solutions of increasing concentrations of compounds to achieve final concentrations ranging from 0.025 μM to 500 μM and incubated for 3 hours at 37° C. To induce STAT1 phosphorylation the samples were then treated with recombinant human IFNγ (R&D Systems, Catalog^#285-IF, Minneapolis, Minn.; 100 nM final concentration) for 20 minutes, and 3 μL/well BV421 labeled anti-CD14 surface antibody (Biolegend, San Diego, Calif., Catalog^#301830) was added for 45 minutes before fixation and red blood cell lysis was performed with BD Phosflow Lyse/Fix buffer (BD Biosciences, San Jose, Calif., Catalog^#558049). Cells were subsequently permeabilized on ice by the addition of BD Perm III buffer (BD Biosciences, San Jose, Calif., Catalog^#558050) and stored at -80° C. until use. Before staining, the cells were washed with PBS containing 0.1% BSA. Optim/zed concentrations of BUV395 labeled anti-CD45 (BD Biosciences, San Jose, Calif., Catalog^#563792) and PE labeled anti-phospho-STAT1 ([…]; Invitrogen, Carlsbad, Calif., Catalog^#12-9008-42) antibodies were added to the cell suspensions and incubated for 2 hours. The cells were washed with PBS containing 0.1% BSA and analyzed on a BD LSRFortessaTM X20 flow cytometer (BD Biosciences, San Jose, Calif.) using BD FACSDivaTM software. The data was analyzed using FlowJo V10 analysis software (Flow Jo LLC, Ashland, Oreg.). The amount of STAT phosphorylation was measured by the mean fluorescence intensity (MFI) of pSTAT1 in CD14+monocytes. Compound dose-response curves were determined using a four-parameter logistic-nonlinear regression model from which half maximal effective concentrations (EC50) were calculated. All statistical analyses utilized GraphPad software (San Diego, Calif.).

[2] = system: B16F10 mouse melanoma cells; assay: B16F10 IFNγ-induced cellular growth inhibition assay; assay type: cell-based; conditions: B16-F10, with 0.5 ng/mL IFNγ
In short: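 B16F10 cells grown in DMEM+10% FBS, with or without 0.5 ng/mL final mouse IFNγ, and dosed in triplicate at 100 μM to 0.001 μM final (0.1% DMSO). Confluence imaged every 6 h for 5 days; percent growth inhibition versus DMSO/with-IFNγ control taken once DMSO/no-IFNγ wells exceeded 95% confluence, giving IC50.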

[3] = system: Pan T cells isolated from C57BL6 splenocytes; assay: T cell function assays (IFNγ and TNFα in supernatants); assay type: cell-based, mouse; conditions: 0.3 μM compound, 3 days; for IFNγ [pg/mL] anti-CD3/CD28 / TNFα [pg/mL] anti-CD3/CD28: anti-CD3/CD28 stimulation
Method: Example 231: T Cell Function Assays Pan T cells were isolated from C57BL6 splenocytes using a MACS Pan T cell isolation kit II (Miltenyi Biotec, Auburn, Calif.) according to the manufacturer's instructions. Isolated T cells (200,000 cells/well in a 96 well flat-bottom plate) were cultured in RPMI 1640 supplemented with 10% FBS, […] 2-mercaptoethanol, 100 U/mL penicillin, and 100 μg/mL streptomycin, and incubated with 0.3 μM compound or DMSO in duplicates. After 1 hour, mouse T cell activator CD3/CD28 Dynabeads (ThermoFisher Scientific, Waltham, Mass.) were added at a 1:5 beads to cells ratio to stimulate the T cells for 3 days. T cells with or without compound were incubated in the absence of T cell activator beads to evaluate if compounds nonspecifically stimulate the T cells. After 3 days of stimulation, supernatants were collected and IFNγ and TNFα in supernatants were assessed using an MSD V-plex assay (Meso Scale Discovery, Rockville, Md.).

[4] = read-out: B16F10 Growth Inhibition IC50

Structure (SMILES) | pEC50 [1] | pIC50 ([2]; read-out: B16F10 GI IC50) | pIC50 [2, 4] | IFNγ [pg/mL] anti-CD3/CD28 [3] [pg/mL] | TNFα [pg/mL] anti-CD3/CD28 [3] [pg/mL] | IFNγ [pg/mL] no stimulation [3] [pg/mL] | TNFα [pg/mL] no stimulation [3] [pg/mL]
CC(C)CCN[C@@H]1CCc2cc(O)c(N3CC(=O)NS3(=O)=O)c(F)c2C1 (single isomer, unassigned) [Compound 118] | 6.24 | > 6.00 | 6.96 | 261.3 | 159.1 | 1.8 | 1.1
O=C1CN(c2c(O)cc3c(c2F)C[C@H](NCCC2CC2)CC3)S(=O)(=O)N1 (single isomer, unassigned) [Compound 133] | 5.80 | > 6.00 | 6.66 | 204.1 | 142.0 | 1.0 | 0.8
CC(C)(CCN[C@@H]1CCc2cc(O)c(N3CC(=O)NS3(=O)=O)c(F)c2C1)C(F)(F)F (single isomer, unassigned) [Compound 177] | 5.70 | > 6.00 | 6.85 | 168.2 | 113.7 | 1.0 | 0.7
O=C1CN(c2c(O)cc3c(c2F)C[C@H](NCCCC(F)F)CC3)S(=O)(=O)N1 (single isomer, unassigned) [Compound 199] | 6.08 | > 6.00 | > 7.30 | 212.9 | 147.8 | 1.8 | 1.1
O=C1CN(c2c(O)cc3c(c2F)C[C@@H](NCCC(F)F)CC3)S(=O)(=O)N1 (single isomer, unassigned) [Compound 259] | 4.85 | 5.00 to 6.00 | 5.82 |  |  |  | 
O=C1CN(c2c(O)cc3c(c2F)C[C@H](NCCC(F)F)CC3)S(=O)(=O)N1 (single isomer, unassigned) [Compound 260] | 5.36 | > 6.00 | 6.74 | 139.6 | 100.0 | 0.8 | 1.1
